Reference: US6384080B1, “Anthranilic acid derivatives as inhibitors of the cGMP-phosphodiesterase” (Fujisawa Pharmaceutical Co., Ltd., priority 1998, dated 2002)
pIC50: −log10 of the molar value. Counter-ions that a name gives are not always drawn.

molecular target: T1, human platelet PDE-V (Homo sapiens, UniProt O76074); test: cGMP-Phosphodiesterase (PDE) assay, enzymatic inhibitory test; assay type: biochemical; conditions: not given
T1 construct: Human platelet cGMP-PDE was separated from other isozymes in human platelets; from tissue; host or cells: human platelets
Method: cGMP-Phosphodiesterase (PDE) Assay
Human platelet cGMP-PDE was separated from other isozymes in human platelets by a modification of the method of Thompson et. al. (see Cyclic Nucleotide Phosphodiesterase (PDE), in Methods of Enzymatic analysis, Vol 4, p127-234, 1984). In enzyme inhibition assays, the test compounds were dissolved in DMSO and then diluted with assay buffer (50 mM Tris-HCl, 0.077 mg/ml dithiothreitol and 10 mg/ml snake venom, 1 mM EGTA, pH 8.0), at final concentrations ranging from 10^−10 to 10^−6 M. Assays were performed at 0.1 μM substrate ([^3H]-cGMP) concentration, at 30° C. for 10 minutes using enzyme dilutions which gave 10-20% hydrolysis of substrate. Each assay was initiated by addition of substrate and terminated by addition of anion exchange resin (Dowex® 1-X8, 250 mg/mg) followed by centrifugation for 10 minutes (3000 rpm, at 4° C.). Radioactivity of supernatant (^3H-GMP) was assayed by liquid scintillation counting.

| SMILES | pIC50 |
| --- | --- |
| CC[C@H](CO)Nc1ccc([N+](=O)[O-])cc1C(=O)NCc1ccc(Cl)c([N+](=O)[O-])c1 [(R)-N-(4-Chloro-3-nitrobenzyl)-2-[1-(hydroxymethyl)propylamino]-5-nitrobenzamide] | > 8.00 |

same assay, conditions: human platelet PDE-V; 0.1 μM [3H]-cGMP substrate, 30° C., 10 minutes; read-out: Inhibitory activity IC50

| SMILES | pIC50 |
| --- | --- |
| O=C(NCc1ccc2c(c1)OCO2)c1cc([N+](=O)[O-])ccc1NC1CCSCC1 [5-Nitro-N-(1,3-benzodioxol-5-ylmethyl)-2-(tetrahydro-2H-thiopyran-4-ylamino)benzamide] | > 8.00 |
| COc1ccc(CNC(=O)c2cc(Br)ccc2NC2CCCC2)cc1Cl [5-bromo-N-(3-chloro-4-methoxybenzyl)-2-(cycloperitylamino)benzamide hydrochloride] | > 8.00 |
| O=C1CCC(Nc2ccc([N+](=O)[O-])cc2C(=O)NCc2ccc3c(c2)OCO3)CC1 [5-nitro-2-(4-oxocyclohexylamino)-N-(1,3-benzodioxol-5-ylmethyl)benzamide] | > 8.00 |
| O=C(NCc1ccc2c(c1)OCO2)c1cc([N+](=O)[O-])ccc1NC1CCNCC1 [5-nitro-2-(4-piperidinylamino)-N-(1,3-benzodioxol-5-ylmethyl)benzamide] | > 8.00 |
| CC[C@H](CO)Nc1ccc([N+](=O)[O-])cc1C(=O)NCc1ccc2c(c1)OCO2 [(R)-2-(1-Ethyl-2-hydroxyethylamino)-5-nitro-N-(1,3-benzodioxol-5-ylmethyl)benzamide] | > 8.00 |
| C[C@H](CO)Nc1ccc([N+](=O)[O-])cc1C(=O)NCc1ccc(-c2ccccc2)cc1 [(R)-2-(2-Hydroxy-1-methylethyl)amino-5-nitro-N-(4-phenybenzyl)benzamide] | > 8.00 |
| COC(=O)[C@@H](C)Nc1ccc([N+](=O)[O-])cc1C(=O)NCc1ccc2c(c1)OCO2 [(R)-2-[1-(Methoxycarbonyl)ethylamino]-5-nitro-N-(1,3-benzodioxol-5-ylmethyl)benzamide] | > 8.00 |
| O=C(NCc1ccc2c(c1)OCO2)c1cc([N+](=O)[O-])ccc1N[C@@H]1CCOC1 [(R)-5-Nitro-2-(tetrahydro-3-furanylamino)-N-(1,3-benzodioxol-5-ylmethyl)benzamide] | > 8.00 |
| CC(C)[C@@H](CO)Nc1ccc([N+](=O)[O-])cc1C(=O)NCc1ccc2c(c1)OCO2 [(S)-2-[1-(Hydroxymethyl)-2-methylpropylamino]-5-nitro-N-(1,3-benzodioxol-5-ylmethyl)benzamide] | > 8.00 |
| CC[C@@H](CCl)Nc1ccc([N+](=O)[O-])cc1C(=O)NCc1ccc2c(c1)OCO2 [(S)-2-[1-(chloromethyl)propylamino]-5-nitro-N-(1,3-benzodioxol-5-ylmethyl)benzamide] | > 8.00 |
| COc1ccc(CNC(=O)c2cc([N+](=O)[O-])ccc2N[C@H](CO)CNC=O)cc1OC [(S)-N-(3,4-Dimethoxybenzyl)-2-[1-(formamidomethyl)-2-hydroxyethylamino]-5-nitrobenzamide] | > 8.00 |
| COc1ccc(CNC(=O)c2cc([N+](=O)[O-])ccc2NC2CCCC2)c(Cl)c1 [N-(2-Chloro-4-methoxybenzyl)-2-(cyclopentyrlamino)-5-nitrobenzamide] | > 8.00 |
| COc1ccc(Cl)c(CNC(=O)c2cc([N+](=O)[O-])ccc2N[C@H]2CC[C@@H](O)CC2)c1 [N-(2-Chloro-5-methoxybenzyl)-2-(cis-4-hydroxycyclohexylamino)-5-nitrobenzamide] | > 8.00 |
| O=C(NCc1ccccc1Cl)c1cc([N+](=O)[O-])ccc1NC1CCCC1 [N-(2-Chlorobenzyl)-2-cyclopentylamino-5-nitrobenzamide] | > 8.00 |
| COc1ccc(CNC(=O)c2cc([N+](=O)[O-])ccc2NC2CCNCC2)cc1OC [N-(3,4-Dimethoxybenzyl)-5-nitro-2-(4-piperidinylamino)benzamide] | > 8.00 |
| O=C(NCc1ccc2c(c1)OCCO2)c1cc([N+](=O)[O-])ccc1N[C@H]1CC[C@H](O)CC1 [N-(3,4-Ethylenedioxybenzyl)-2-(trans-4-hydroxycyclohexylamino)-5-nitrobenzamide] | > 8.00 |
| COc1ccc(CNC(=O)c2cc([N+](=O)[O-])ccc2NC2COC(C)(C)OC2)cc1OC [N-(3,4-dimethoxybenzyl)-2-(2,2-dimethyl-1,3-dioxan-5-ylamino)-5-nitrobenzamide] | > 8.00 |
| COc1ccc(CNC(=O)c2cc([N+](=O)[O-])ccc2N[C@H]2CC[C@H](NC(=N)N)CC2)cc1OC [N-(3,4-dimethoxybenzyl)-2-(trans-4-guanidinocyclohexylamino)-5-nitrobenzamide hydrochloride] | > 8.00 |
| COc1ccc(CNC(=O)c2cc([N+](=O)[O-])ccc2NC2COC(=O)OC2)cc1OC [N-(3,4-dimethoxybenzyl)-5-nitro-2-(2-oxo-1,3-dioxan-5-ylamino)benzamide] | > 8.00 |
| CCCNC(=O)N[C@H]1CC[C@H](Nc2ccc([N+](=O)[O-])cc2C(=O)NCc2ccc(OC)c(OC)c2)CC1 [N-(3,4-dimethoxybenzyl)-5-nitro-2-[trans-4-(3-propylureido)cyclohexylamino]benzamide] | > 8.00 |

| SMILES | pIC50 |
| --- | --- |
| COc1c(Cl)cc(CNC(=O)c2cc([N+](=O)[O-])ccc2N[C@H]2CC[C@H](O)CC2)cc1Cl [N-(3,5-Dichloro-4-methoxybenzyl)-2-(trans-4-hydroxycyclohexylamino)-5-nitrobenzamide] | > 8.00 |
| COc1ccc(CNC(=O)c2cc(C(F)(F)F)ccc2NC(CO)CO)cc1Cl [N-(3-Chloro-4-methoxybenzyl)-2-[2-hydroxy-1-(hydroxymethyl)ethylamino]-5-(trifluoromethyl)benzamide] | > 8.00 |
| O=C(NCc1cccc(Cl)c1)c1cc([N+](=O)[O-])ccc1NC1CCCC1 [N-(3-Chlorobenzyl)-2-(cyclopentylamino)-5-nitrobenzamide] | > 8.00 |
| COc1ccc(CNC(=O)c2cc([N+](=O)[O-])ccc2NC(CO)CO)cc1F [N-(3-Fluoro-4-methoxybenzyl)-2-[2-hydroxy-1-(hydroxynethyl)ethylamino]-5-nitrobenzamide] | > 8.00 |
| Nc1ccc(CNC(=O)c2cc([N+](=O)[O-])ccc2NC2CCCC2)cc1 [N-(4-Aminobenzyl)-2-(cyclopentylamino)-5-nitrobenzamide] | > 8.00 |
| O=C(NCc1ccc(Br)cc1)c1cc([N+](=O)[O-])ccc1NC1CCCC1 [N-(4-Bromobenzyl)-2-(cyclopentylamino)-5-nitrobenzamide] | > 8.00 |
| CCOc1cc(CNC(=O)c2cc([N+](=O)[O-])ccc2N[C@H]2CC[C@@H](O)CC2)ccc1Cl [N-(4-Chloro-3-ethoxybenzyl)-2-(cis-4-hydroxycyclohexylamino)-5-nitrobenzaride] | > 8.00 |
| O=C(NCc1ccc(Cl)cc1)c1cc([N+](=O)[O-])ccc1NC1CCCC1 [N-(4-Chlorobenzyl)-2-(cyclopentylamino)-5-nitrobenzamide] | > 8.00 |
| COc1cc(CNC(=O)c2cc([N+](=O)[O-])ccc2NC(CO)CO)ccc1OCC1CCC1 [N-(4-Cyclobutylmethoxy-3-methoxybenzyl)-2-[2-hydroxy-1-(hydroxymethyl)ethylamino]-5-nitrobenzamide] | > 8.00 |
| CCOc1ccc(CNC(=O)c2cc([N+](=O)[O-])ccc2N[C@H]2CC[C@@H](O)CC2)cc1OC [N-(4-Ethoxy-3-methoxybenzyl)-2-(cis-4-hydroxycyclohexylamino)-5-nitrobenzamide] | > 8.00 |
| CCOc1ccc(CNC(=O)c2cc([N+](=O)[O-])ccc2N[C@H]2CC[C@H](NC=O)CC2)cc1OC [N-(4-Ethoxy-3-methoxybenzyl)-2-(trans-4-formamidocyclohexylamino)-5-nitrobenzamide] | > 8.00 |
| Nc1ccc(CNC(=O)c2cc([N+](=O)[O-])ccc2NC2CCCC2)c(Cl)c1 [N-(4-amino-2-chlorobenzyl)-2-(cyclopentylamino)-5-nitrobenzamide] | > 8.00 |
| O=C(NCc1cc2ccccc2s1)c1cc([N+](=O)[O-])ccc1N[C@H]1CC[C@@H](O)CC1 [N-(Benzo[b]thiophen-2-ylmethyl)-2-(cis-4-hydroxycyclohexylamino)-5-nitrobenzamide] | > 8.00 |
| O=C(NCc1cc2ccccc2o1)c1cc([N+](=O)[O-])ccc1N[C@H]1CC[C@@H](O)CC1 [N-(Benzofuran-2-ylmethyl)-2-(cis-4-hydroxycyclohexylamino)-5-nitrobenzamide] | > 8.00 |
| O=C(NCc1ccccc1)c1cc([N+](=O)[O-])ccc1NC1CCC(O)C1 (centres unmarked) [N-Benzyl-2-(3-hydroxycyclopentylamino)-5-nitrobenzamide] | > 8.00 |
| O=C(NCc1ccccc1)c1cc([N+](=O)[O-])ccc1NC1CCC1 [N-Benzyl-2-(cyclobutylamino)-5-nitrobenzamide] | > 8.00 |
| O=C(NCc1ccccc1)c1cc([N+](=O)[O-])ccc1NC1CCCCC1 [N-Benzyl-2-(cyclohexylamino)-5-nitrobenzamide] | > 8.00 |
| O=C(NCc1ccccc1)c1cc([N+](=O)[O-])ccc1NC1CC1 [N-Benzyl-2-(cyclopropylamino)-5-nitrobenzamide] | > 8.00 |
| O=C(NCc1nc2ccccc2[nH]1)c1cc([N+](=O)[O-])ccc1NC1CCCC1 [N-[(2-Benzimidazolyl)methyl]-2-(cyclopentylamino)-5-nitrobenzamide] | > 8.00 |
| O=C(NCC1CCCCC1)c1cc([N+](=O)[O-])ccc1N[C@H]1CC[C@@H](O)CC1 [N-cyclohexylmethyl-2-(cis-4-hydroxycyclohexylamino)-5-nitrobenzamide] | > 8.00 |
